Laboratory results published in PubChem BioAssay AID248 (DTP/NCI, 2004).
Values joined by “and” are separate entries in the source; they are usually repeats but may differ in a detail not shown here. Identical values can stand only once. Inconclusive results and toxic doses are left out. Cut-off read from the data, not from the text of the source: active = T/C of 150% or more; inactive = T/C below 125%.

Tested on: L1210 leukemia ip in BDF1 mice, survival T/C
Assay: NCI In Vivo Anticancer Drug Screen. Data for tumor model L1210 Leukemia (intraperitoneal) in B6D2F1 (BDF1) mice
Conditions: endpoint: mean survival time, higher = longer survival
In short: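 Mice bearing the transplanted tumor received compound or vehicle. Survival of the treated group was divided by that of the vehicle-treated control group to give the ratio.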

[1] = dose: 50.0 mg/kg/injection, schedule: Q01DX009 (ip), vehicle: saline with Tween-80
[2] = dose: 100.0 mg/kg/injection, schedule: Q01DX001 (ip), vehicle: other
[3] = dose: 100.0 mg/kg/injection, schedule: Q01DX009 (ip), vehicle: saline with Tween-80
[4] = dose: 100.0 mg/kg/injection, schedule: Q04DX003 (ip), vehicle: saline with Tween-80
[5] = dose: 100.0 mg/kg/injection, schedule: Q04DX002 (ip), vehicle: saline with Tween-80
[6] = dose: 200.0 mg/kg/injection, schedule: Q04DX002 (ip), vehicle: saline with Tween-80
[7] = dose: 400.0 mg/kg/injection, schedule: Q04DX002 (ip), vehicle: saline with Tween-80
[8] = dose: 100.0 mg/kg/injection, schedule: Q04DX003 (ip), vehicle: Klucel (hydroxypropylcellulose) (HPC)
[9] = dose: 200.0 mg/kg/injection, schedule: Q04DX003 (ip), vehicle: Klucel (hydroxypropylcellulose) (HPC)
[10] = dose: 400.0 mg/kg/injection, schedule: Q04DX003 (ip), vehicle: Klucel (hydroxypropylcellulose) (HPC)
[11] = dose: 100.0 mg/kg/injection, schedule: Q01DX009 (ip), vehicle: Klucel (hydroxypropylcellulose) (HPC)
[12] = dose: 100.0 mg/kg/injection, schedule: Q04DX002 (ip), vehicle: Klucel (hydroxypropylcellulose) (HPC)
[13] = dose: 200.0 mg/kg/injection, schedule: Q04DX002 (ip), vehicle: Klucel (hydroxypropylcellulose) (HPC)
[14] = dose: 400.0 mg/kg/injection, schedule: Q04DX002 (ip), vehicle: Klucel (hydroxypropylcellulose) (HPC)
[15] = dose: 50.0 mg/kg/injection, schedule: Q01DX009 (ip), vehicle: saline
[16] = dose: 100.0 mg/kg/injection, schedule: Q01DX009 (ip), vehicle: saline
[17] = dose: 200.0 mg/kg/injection, schedule: Q01DX009 (ip), vehicle: saline
[18] = dose: 200.0 mg/kg/injection, schedule: Q04DX003 (ip), vehicle: saline with Tween-80
[19] = dose: 200.0 mg/kg/injection, schedule: Q01DX009 (ip), vehicle: saline with Tween-80
[20] = dose: 400.0 mg/kg/injection, schedule: Q01DX009 (ip), vehicle: saline with Tween-80

Measured: T/C

CCCCCCCCCCCCNCc1ccc(O)cc1
inactive: dose: 25.0 mg/kg/injection, schedule: Q01DX001 (ip), vehicle: other 95 % of control | dose: 25.0 mg/kg/injection, schedule: Q01DX009 (ip), vehicle: saline with Tween-80 96 % of control | dose: 25.0 mg/kg/injection, schedule: Q04DX003 (ip), vehicle: saline with Tween-80 98 % of control | dose: 50.0 mg/kg/injection, schedule: Q01DX001 (ip), vehicle: other 93 % of control | [1] 93 % of control | dose: 50.0 mg/kg/injection, schedule: Q04DX003 (ip), vehicle: saline with Tween-80 101 % of control | [2] 93 % of control and 90 % of control | [3] 88 % of control | [4] 102 % of control

O=S(=O)(c1ccc(N=NN2CCOCC2)cc1)N(CCCl)CCCl
inactive: [5] 108 % of control | [6] 115 % of control | [7] 115 % of control

CN1COC(OC(C)(C)C)C(C)(C)C1 (centres undefined)
inactive: dose: 100.0 mg/kg/injection, schedule: Q01DX001 (ip), vehicle: saline sonified 90 % of control | dose: 400.0 mg/kg/injection, schedule: Q01DX001 (ip), vehicle: saline sonified 95 % of control

CN(C=O)C(=S)[S][Sb]([S]C(=S)Nc1ccc(S(=O)(=O)Nc2ccc(N=Nc3ccccc3)cc2)cc1)[S]C(=S)N(C)C=O
inactive: dose: 100.0 mg/kg/injection, schedule: Q01DX001 (ip), vehicle: steriod suspending solution 106 % of control | dose: 200.0 mg/kg/injection, schedule: Q01DX001 (ip), vehicle: steriod suspending solution 90 % of control

O=[N+]([O-])c1cc(Br)cc2c1nc(Cl)c1ccccc12
inactive: [8] 98 % of control | [9] 101 % of control | [10] 98 % of control

Cc1ccnc(NC(=O)Nc2cc(F)ccc2F)c1
inactive: [11] 92 % of control and 103 % of control | [12] 101 % of control and 90 % of control | [8] 97 % of control | dose: 200.0 mg/kg/injection, schedule: Q01DX009 (ip), vehicle: Klucel (hydroxypropylcellulose) (HPC) 92 % of control and 89 % of control | [13] 90 % of control | [9] 93 % of control | dose: 400.0 mg/kg/injection, schedule: Q01DX009 (ip), vehicle: Klucel (hydroxypropylcellulose) (HPC) 94 % of control and 98 % of control | [14] 95 % of control and 90 % of control | [10] 87 % of control

O=C(C=C(C(F)(F)Cl)C(F)(F)Cl)c1cccs1
inactive: dose: 5.0 mg/kg/injection, schedule: Q01DX009 (ip), vehicle: saline 95 % of control | dose: 10.0 mg/kg/injection, schedule: Q01DX009 (ip), vehicle: saline 88 % of control

CC1(C)N=C(N)N=C(N)N1c1cccc(OCCCOc2ccc([N+](=O)[O-])cc2)c1
inactive: dose: 100.0 mg/kg/injection, schedule: Q01DX001 (ip), vehicle: saline 91 % of control

CCn1cc(C(=O)O)c(=O)c2c3ccccc3ccc21
inactive: [12] 96 % of control | [13] 93 % of control | [14] 100 % of control

O=C(Nc1cccc2nsnc12)c1ccc(C(=O)Nc2cccc3nsnc23)cc1
inactive: [2] 94 % of control | dose: 200.0 mg/kg/injection, schedule: Q01DX001 (ip), vehicle: other 88 % of control | dose: 400.0 mg/kg/injection, schedule: Q01DX001 (ip), vehicle: other 98 % of control

COC1CC2c3ccccc3C1C(C)=[N+]2C (centres undefined)
inactive: [15] 97 % of control | [16] 101 % of control | dose: 100.0 mg/kg/injection, schedule: Q04DX003 (ip), vehicle: saline 102 % of control | [17] 100 % of control | dose: 200.0 mg/kg/injection, schedule: Q04DX003 (ip), vehicle: saline 97 % of control | dose: 400.0 mg/kg/injection, schedule: Q04DX003 (ip), vehicle: saline 102 % of control

COc1ccc2c(c1)C1(C(=O)O)CC=CCC1(C(=O)O)C2 (centres undefined)
inactive: dose: 75.0 mg/kg/injection, schedule: Q01DX001 (ip), vehicle: saline 98 % of control | dose: 150.0 mg/kg/injection, schedule: Q01DX001 (ip), vehicle: saline 98 % of control | dose: 300.0 mg/kg/injection, schedule: Q01DX001 (ip), vehicle: saline 96 % of control

C=CCNC(=O)C1C2C=CC(C2)C1C(=O)NCC=C (centres undefined)
inactive: [4] 103 % of control | [18] 103 % of control

CCOC(=O)C1=C(Nc2ccccc2)CSC1
inactive: dose: 25.0 mg/kg/injection, schedule: Q01DX009 (ip), vehicle: water 100 % of control | dose: 50.0 mg/kg/injection, schedule: Q01DX009 (ip), vehicle: water 101 % of control | dose: 100.0 mg/kg/injection, schedule: Q01DX009 (ip), vehicle: water 94 % of control | dose: 200.0 mg/kg/injection, schedule: Q01DX009 (ip), vehicle: water 102 % of control | dose: 400.0 mg/kg/injection, schedule: Q01DX009 (ip), vehicle: water 89 % of control

O=C(c1cccnc1)c1cccnc1
inactive: [8] 91 % of control | [9] 100 % of control | [10] 97 % of control

NC1CONC1=O (centres undefined)
inactive: [3] 101 % of control | [19] 98 % of control | [20] 98 % of control

CN(C)N=Nc1c(Br)cc(Br)cc1Br
inactive: [1] 87 % of control | [3] 102 % of control | [19] 105 % of control

CC(C)CCCC(C)C1CCC2C3CCC4CC(=O)CCC4(C)C3CCC12C (centres undefined)
inactive: dose: 12.5 mg/kg/injection, schedule: Q01DX009 (ip), vehicle: Klucel (hydroxypropylcellulose) (HPC) 104 % of control | dose: 25.0 mg/kg/injection, schedule: Q01DX009 (ip), vehicle: Klucel (hydroxypropylcellulose) (HPC) 107 % of control and 90 % of control | [11] 90 % of control | [12] 87 % of control | [13] 93 % of control | [14] 107 % of control

Cc1c(-c2ccccc2)sc(N)c1C#N
inactive: dose: 100.0 mg/kg/injection, schedule: Q01DX001 (ip), vehicle: saline with Tween-80 94 % of control | [3] 93 % of control and 100 % of control | [5] 94 % of control | [4] 95 % of control | dose: 200.0 mg/kg/injection, schedule: Q01DX001 (ip), vehicle: saline with Tween-80 93 % of control | [19] 92 % of control | [6] 94 % of control and 98 % of control | [18] 100 % of control | dose: 400.0 mg/kg/injection, schedule: Q01DX001 (ip), vehicle: saline with Tween-80 93 % of control | [20] 100 % of control and 87 % of control | [7] 96 % of control | dose: 400.0 mg/kg/injection, schedule: Q04DX003 (ip), vehicle: saline with Tween-80 100 % of control

C/C=C\C1CC2CC(C1C)C2(C)C (centres undefined)
inactive: [15] 102 % of control | [16] 97 % of control | [17] 105 % of control

COC(=O)C1=C(C(=O)OC)C2C=CC1C1(C)N=C(OC)C21C (centres undefined)
inactive: [5] 100 % of control | [6] 100 % of control | [7] 102 % of control

CCc1nc2ccccc2c(=O)n1-c1ccc(Cl)cc1
inactive: [1] 92 % of control | [3] 95 % of control

COc1ccc(-c2nnc(-c3ccc(OC)cc3)nn2)cc1
inactive: [12] 103 % of control | [13] 87 % of control | [14] 87 % of control

CSC(=S)N/N=C(\C)c1ccccn1
inactive: [4] 107 % of control

Nc1nc(N)nc(N)n1 (tested in a mixture with another compound)
inactive: [4] 89 % of control | [18] 89 % of control
